Experimental data as given in patent US12552775B2, “Compounds and uses thereof” (Foghorn Therapeutics Inc., priority 2020, dated 2026).

What was measured:
HiBit-BRM fusion protein = target: T1, HiBit-BRM fusion protein (Homo sapiens, UniProt P51531); assay: HiBiT-BRM cell-based degradation assay (Nano-Glo HiBiT Lytic Detection, 24 h); conditions: stable HeLa cell line expressing HiBiT-BRM, top dose 30 μM
T1 construct: expressed in transfected cells
Outline: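 Stable HiBiT-BRM HeLa cells were treated with 10-point 3-fold serial dilutions (30 μM final top dose, duplicate) for 24 h, then lysed with LgBiT-containing detection reagent and luminescence read. Degradation % was normalised to DMSO (high control) and 2 μM reference BRM/BRG1 degrader (low control).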

[1] = target: T2, HiBit-BRG1 fusion protein (Homo sapiens, UniProt P51532); assay: HiBiT-BRG1 cell-based degradation assay (Nano-Glo HiBiT Lytic Detection, 24 h); conditions: stable HeLa cell line expressing HiBit-BRG1 and LgBit, top dose 30 μM, read-out: BRG1 HiBit Degradation Maximum (%)
T2 construct: expressed in transfected cells
Outline: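 HeLa cells stably expressing HiBiT-BRG1 plus LgBiT were treated with 10-point 3-fold compound dilutions (top 30 μM final) for 24 h. Lytic Nano-Glo HiBiT luminescence was read. % degradation was normalised between DMSO (high control) and 2 μM of a reference BRM/BRG1 degrader (low control).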

T2 sequence (P51532 whole entry, the tested form may be a part): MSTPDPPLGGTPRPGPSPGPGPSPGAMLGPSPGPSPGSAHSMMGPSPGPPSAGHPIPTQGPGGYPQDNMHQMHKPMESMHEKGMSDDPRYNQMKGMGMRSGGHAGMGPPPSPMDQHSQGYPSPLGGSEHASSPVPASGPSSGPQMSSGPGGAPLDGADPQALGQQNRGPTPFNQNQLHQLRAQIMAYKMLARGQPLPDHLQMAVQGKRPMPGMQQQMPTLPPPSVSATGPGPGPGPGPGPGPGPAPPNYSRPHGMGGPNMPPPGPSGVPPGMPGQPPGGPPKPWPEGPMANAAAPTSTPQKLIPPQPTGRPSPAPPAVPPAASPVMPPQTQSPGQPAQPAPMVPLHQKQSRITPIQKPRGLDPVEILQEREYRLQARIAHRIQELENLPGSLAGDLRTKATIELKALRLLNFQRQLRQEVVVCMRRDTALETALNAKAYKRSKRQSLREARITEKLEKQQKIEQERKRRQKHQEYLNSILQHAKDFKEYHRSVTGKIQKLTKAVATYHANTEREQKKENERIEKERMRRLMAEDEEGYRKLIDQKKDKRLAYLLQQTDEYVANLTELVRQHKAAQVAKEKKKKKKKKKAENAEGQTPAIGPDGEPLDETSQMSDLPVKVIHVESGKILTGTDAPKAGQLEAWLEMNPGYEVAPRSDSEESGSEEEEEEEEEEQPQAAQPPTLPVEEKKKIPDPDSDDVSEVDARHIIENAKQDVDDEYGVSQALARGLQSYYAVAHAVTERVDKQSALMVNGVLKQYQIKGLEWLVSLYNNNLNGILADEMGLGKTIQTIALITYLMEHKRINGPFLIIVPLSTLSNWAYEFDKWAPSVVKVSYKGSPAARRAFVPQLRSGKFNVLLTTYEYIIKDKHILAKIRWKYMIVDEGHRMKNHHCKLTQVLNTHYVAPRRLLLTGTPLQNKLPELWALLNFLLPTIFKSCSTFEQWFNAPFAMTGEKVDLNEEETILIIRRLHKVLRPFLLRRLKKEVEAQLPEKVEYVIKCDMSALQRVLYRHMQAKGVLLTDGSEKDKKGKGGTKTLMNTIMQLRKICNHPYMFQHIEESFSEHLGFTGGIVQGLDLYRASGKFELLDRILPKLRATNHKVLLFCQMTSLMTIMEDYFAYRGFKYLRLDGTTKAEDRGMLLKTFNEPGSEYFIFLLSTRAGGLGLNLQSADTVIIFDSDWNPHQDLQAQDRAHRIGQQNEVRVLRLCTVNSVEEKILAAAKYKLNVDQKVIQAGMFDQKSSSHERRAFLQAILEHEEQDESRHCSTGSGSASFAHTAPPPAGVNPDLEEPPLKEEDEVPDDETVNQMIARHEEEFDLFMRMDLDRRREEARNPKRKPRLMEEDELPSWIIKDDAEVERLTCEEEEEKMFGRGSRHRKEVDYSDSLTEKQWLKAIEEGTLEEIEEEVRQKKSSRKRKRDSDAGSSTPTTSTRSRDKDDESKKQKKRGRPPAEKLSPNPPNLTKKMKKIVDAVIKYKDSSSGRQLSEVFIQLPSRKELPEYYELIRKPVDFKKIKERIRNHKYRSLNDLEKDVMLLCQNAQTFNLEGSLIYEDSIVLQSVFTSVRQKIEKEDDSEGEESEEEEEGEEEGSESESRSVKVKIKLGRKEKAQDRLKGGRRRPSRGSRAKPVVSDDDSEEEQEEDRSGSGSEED
T1 sequence (P51531 whole entry, the tested form may be a part): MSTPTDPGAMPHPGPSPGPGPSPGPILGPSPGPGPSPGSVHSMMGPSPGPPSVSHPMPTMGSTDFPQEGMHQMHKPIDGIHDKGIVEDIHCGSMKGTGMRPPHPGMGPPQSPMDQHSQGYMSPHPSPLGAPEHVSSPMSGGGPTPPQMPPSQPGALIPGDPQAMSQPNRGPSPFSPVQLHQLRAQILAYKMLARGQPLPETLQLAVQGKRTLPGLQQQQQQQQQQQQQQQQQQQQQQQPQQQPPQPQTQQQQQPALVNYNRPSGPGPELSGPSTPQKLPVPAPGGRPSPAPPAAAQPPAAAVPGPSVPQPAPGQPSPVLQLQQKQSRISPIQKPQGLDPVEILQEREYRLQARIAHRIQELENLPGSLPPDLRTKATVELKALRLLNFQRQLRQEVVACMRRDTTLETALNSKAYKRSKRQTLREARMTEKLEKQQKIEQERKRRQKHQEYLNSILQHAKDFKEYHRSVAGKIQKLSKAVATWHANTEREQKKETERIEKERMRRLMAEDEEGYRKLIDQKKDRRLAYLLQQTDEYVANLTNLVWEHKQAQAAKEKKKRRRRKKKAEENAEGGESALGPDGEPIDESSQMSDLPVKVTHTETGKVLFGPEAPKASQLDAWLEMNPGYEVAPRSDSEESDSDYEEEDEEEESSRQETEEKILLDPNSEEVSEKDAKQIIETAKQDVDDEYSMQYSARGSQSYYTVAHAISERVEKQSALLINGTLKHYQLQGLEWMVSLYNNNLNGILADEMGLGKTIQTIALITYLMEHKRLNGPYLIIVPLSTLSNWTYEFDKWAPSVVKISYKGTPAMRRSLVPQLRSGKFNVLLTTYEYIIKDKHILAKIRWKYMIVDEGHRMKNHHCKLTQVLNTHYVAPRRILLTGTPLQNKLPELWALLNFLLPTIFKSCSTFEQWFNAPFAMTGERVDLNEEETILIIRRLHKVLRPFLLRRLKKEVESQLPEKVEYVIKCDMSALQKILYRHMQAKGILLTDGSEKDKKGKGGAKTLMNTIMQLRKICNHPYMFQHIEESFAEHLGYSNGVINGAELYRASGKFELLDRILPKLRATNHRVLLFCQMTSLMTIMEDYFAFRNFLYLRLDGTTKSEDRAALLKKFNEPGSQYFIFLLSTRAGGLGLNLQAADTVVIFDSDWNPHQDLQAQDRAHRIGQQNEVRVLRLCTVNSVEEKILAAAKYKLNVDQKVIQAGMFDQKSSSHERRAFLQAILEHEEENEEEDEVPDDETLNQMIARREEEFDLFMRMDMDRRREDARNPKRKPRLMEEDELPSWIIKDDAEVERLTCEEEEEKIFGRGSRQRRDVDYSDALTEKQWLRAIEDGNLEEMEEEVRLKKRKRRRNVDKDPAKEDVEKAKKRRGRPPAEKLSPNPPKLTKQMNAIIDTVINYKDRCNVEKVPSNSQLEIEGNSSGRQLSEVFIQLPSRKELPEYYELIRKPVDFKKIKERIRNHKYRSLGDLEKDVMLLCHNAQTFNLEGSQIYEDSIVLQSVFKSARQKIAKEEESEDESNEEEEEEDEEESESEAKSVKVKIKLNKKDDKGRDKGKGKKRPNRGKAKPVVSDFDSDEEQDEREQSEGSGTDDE

Structure (SMILES) | Dmax [1] | BRM HiBit Degradation Maximum (%) (HiBit-BRM fusion protein)
Nc1nnc(-c2ccccc2O)cc1OCC12CC(C(=O)NCCCCCNc3ccc4c(c3)C(=O)N(C3CCC(=O)NC3=O)C4=O)(C1)C2 (stereo not shown) [Compound 63, 3-(((3-amino-6-(2-hydroxyphenyl)pyridazin-4-yl)oxy)methyl)-N-(5-((2-(2,6-dioxopiperidin-3-yl)-1,3-dioxoisoindolin-5-yl)amino)pentyl)bicyclo[1.1.1]pentane-1-carboxamide; formic acid] | < 50% | C (“C” indicates maximum degradation < 50%)
Nc1nnc(-c2ccccc2O)cc1OCC12CC(C(=O)NCCCCCCNc3ccc4c(c3)C(=O)N(C3CCC(=O)NC3=O)C4=O)(C1)C2 (stereo not shown) [Compound 64, 3-(((3-amino-6-(2-hydroxyphenyl)pyridazin-4-yl)oxy)methyl)-N-(6-((2-(2,6-dioxopiperidin-3-yl)-1,3-dioxoisoindolin-5-yl)amino)hexyl)bicyclo[1.1.1]pentane-1-carboxamide] | < 50% | C (“C” indicates maximum degradation < 50%)
Nc1nnc(-c2ccccc2O)cc1OCC12CC(C(=O)NCCCCCCCCNc3ccc4c(c3)C(=O)N(C3CCC(=O)NC3=O)C4=O)(C1)C2 (stereo not shown) [Compound 65, 3-(((3-amino-6-(2-hydroxyphenyl)pyridazin-4-yl)oxy)methyl)-N-(8-((2-(2,6-dioxopiperidin-3-yl)-1,3-dioxoisoindolin-5-yl)amino)octyl)bicyclo[1.1.1]pentane-1-carboxamide] | < 50% | C (“C” indicates maximum degradation < 50%)
Nc1nnc(-c2ccccc2O)cc1OCC12CC(C(=O)NCCOCCOCCNc3ccc4c(c3)C(=O)N(C3CCC(=O)NC3=O)C4=O)(C1)C2 (stereo not shown) [Compound 66, 3-(((3-amino-6-(2-hydroxyphenyl)pyridazin-4-yl)oxy)methyl)-N-(2-(2-(2-((2-(2,6-dioxopiperidin-3-yl)-1,3-dioxoisoindolin-5-yl)amino)ethoxy)ethoxy)ethyl)bicyclo[1.1.1]pentane-1-carboxamide] | < 50% | C (“C” indicates maximum degradation < 50%)
Cc1nc2cccc(NCCCCCCNC(=O)C34CC(COc5cc(-c6ccccc6O)nnc5N)(C3)C4)c2c(=O)n1C1CCC(=O)NC1=O (stereo not shown) [Compound 67, 3-(((3-amino-6-(2-hydroxyphenyl)pyridazin-4-yl)oxy)methyl)-N-(6-((3-(2,6-dioxopiperidin-3-yl)-2-methyl-4-oxo-3,4-dihydroquinazolin-5-yl)amino)hexyl)bicyclo[1.1.1]pentane-1-carboxamide] | < 50% | C (“C” indicates maximum degradation < 50%)
Nc1nnc(-c2ccccc2O)cc1OCC12CC(C(=O)NCCCCS(=O)(=O)CCCNc3cccc4c3C(=O)N(C3CCC(=O)NC3=O)C4=O)(C1)C2 (stereo not shown) [Compound 73, 3-(((3-amino-6-(2-hydroxyphenyl)pyridazin-4-yl)oxy)methyl)-N-(4-((3-((2-(2,6-dioxopiperidin-3-yl)-1,3-dioxoisoindolin-4-yl)amino)propyl)sulfonyl)butyl)bicyclo[1.1.1]pentane-1-carboxamide] | < 50% | C (“C” indicates maximum degradation < 50%)
Nc1nnc(-c2ccccc2O)cc1OCC12CC(C(=O)NCCS(=O)(=O)CCNc3cccc4c3C(=O)N(C3CCC(=O)NC3=O)C4=O)(C1)C2 (stereo not shown) [Compound 74, 3-(((3-amino-6-(2-hydroxyphenyl)pyridazin-4-yl)oxy)methyl)-N-(2-((2-((2-(2,6-dioxopiperidin-3-yl)-1,3-dioxoisoindolin-4-yl)amino)ethyl)sulfonyl)ethyl)bicyclo[1.1.1]pentane-1-carboxamide] | < 50% | C (“C” indicates maximum degradation < 50%)
CN(CCNC(=O)COc1cccc2c1C(=O)N(C1CCC(=O)NC1=O)C2=O)CCNC(=O)C12CC(COc3cc(-c4ccccc4O)nnc3N)(C1)C2 (stereo not shown) [Compound 75, 3-(((3-amino-6-(2-hydroxyphenyl)pyridazin-4-yl)oxy)methyl)-N-(2-((2-(2-((2-(2,6-dioxopiperidin-3-yl)-1,3-dioxoisoindolin-4-yl)oxy)acetamido)ethyl)(methyl)amino)ethyl)bicyclo[1.1.1]pentane-1-carboxamide] | < 50% | C (“C” indicates maximum degradation < 50%)
CN(CCNC(=O)COc1ccc2c(c1)C(=O)N(C1CCC(=O)NC1=O)C2=O)CCNC(=O)C12CC(COc3cc(-c4ccccc4O)nnc3N)(C1)C2 (stereo not shown) [Compound 76, 3-(((3-amino-6-(2-hydroxyphenyl)pyridazin-4-yl)oxy)methyl)-N-(2-((2-(2-((2-(2,6-dioxopiperidin-3-yl)-1,3-dioxoisoindolin-5-yl)oxy)acetamido)ethyl)(methyl)amino)ethyl)bicyclo[1.1.1]pentane-1-carboxamide] | < 50% | C (“C” indicates maximum degradation < 50%)
CN(CCNC(=O)C12CC(COc3cc(-c4ccccc4O)nnc3N)(C1)C2)CCNc1cccc2c1C(=O)N(C1CCC(=O)NC1=O)C2=O (stereo not shown) [Compound 77, 3-(((3-amino-6-(2-hydroxyphenyl)pyridazin-4-yl)oxy)methyl)-N-(2-((2-((2-(2,6-dioxopiperidin-3-yl)-1,3-dioxoisoindolin-4-yl)amino)ethyl)(methyl)amino)ethyl)bicyclo[1.1.1]pentane-1-carboxamide] | < 50% | C (“C” indicates maximum degradation < 50%)
Nc1nnc(-c2ccccc2O)cc1OCC12CC(C(=O)N3CC(CCOc4cccc5c4C(=O)N(C4CCC(=O)NC4=O)C5=O)C3)(C1)C2 (stereo not shown) [Compound 78, 4-(2-(1-(3-(((3-amino-6-(2-hydroxyphenyl)pyridazin-4-yl)oxy)methyl)bicyclo[1.1.1]pentane-1-carbonyl)azetidin-3-yl)ethoxy)-2-(2,6-dioxopiperidin-3-yl)isoindoline-1,3-dione] | < 50% | C (“C” indicates maximum degradation < 50%)
CN(CCNC(=O)C12CC(COc3cc(-c4ccccc4O)nnc3N)(C1)C2)CCOCCOc1cccc2c1C(=O)N(C1CCC(=O)NC1=O)C2=O (stereo not shown) [Compound 79, 3-(((3-amino-6-(2-hydroxyphenyl)pyridazin-4-yl)oxy)methyl)-N-(2-((2-(2-((2-(2,6-dioxopiperidin-3-yl)-1,3-dioxoisoindolin-4-yl)oxy)ethoxy)ethyl)(methyl)amino)ethyl)bicyclo[1.1.1]pentane-1-carboxamide] | < 50% | C (“C” indicates maximum degradation < 50%)

More lines, main results first:

Dmax [1] | Structure (SMILES) | BRM HiBit Degradation Maximum (%) (HiBit-BRM fusion protein)
< 50% | Cc1ncsc1-c1ccc(CNC(=O)[C@@H]2C[C@@H](O)CN2C(=O)[C@@H](NC(=O)COCCOCCNC(=O)C23CC(COc4cc(-c5ccccc5O)nnc4N)(C2)C3)C(C)(C)C)cc1 [Compound 68, (2S,4R)-1-((S)-1-(3-(((3-amino-6-(2-hydroxyphenyl)pyridazin-4-yl)oxy)methyl)bicyclo[1.1.1]pentan-1-yl)-12-(tert-butyl)-1,10-dioxo-5,8-dioxa-2,11-diazatridecan-13-oyl)-4-hydroxy-N-(4-(4-methylthiazol-5-yl)benzyl)pyrrolidine-2-carboxamide; formic acid] | C (“C” indicates maximum degradation < 50%)
< 50% | Cc1ncsc1-c1ccc(CNC(=O)[C@@H]2C[C@@H](O)CN2C(=O)[C@@H](NC(=O)COCCOCCOCCNC(=O)C23CC(COc4cc(-c5ccccc5O)nnc4N)(C2)C3)C(C)(C)C)cc1 [Compound 69, (2S,4R)-1-((S)-1-(3-(((3-amino-6-(2-hydroxyphenyl)pyridazin-4-yl)oxy)methyl)bicyclo[1.1.1]pentan-1-yl)-15-(tert-butyl)-1,13-dioxo-5,8,11-trioxa-2,14-diazahexadecan-16-oyl)-4-hydroxy-N-(4-(4-methylthiazol-5-yl)benzyl)pyrrolidine-2-carboxamide] | C (“C” indicates maximum degradation < 50%)
< 50% | Cc1ncsc1-c1ccc(CNC(=O)[C@@H]2C[C@@H](O)CN2C(=O)[C@@H](NC(=O)CCCCCNC(=O)C23CC(COc4cc(-c5ccccc5O)nnc4N)(C2)C3)C(C)(C)C)cc1 [Compound 70, (2S,4R)-1-((S)-2-(6-(3-(((3-amino-6-(2-hydroxyphenyl)pyridazin-4-yl)oxy)methyl)bicyclo[1.1.1]pentane-1-carboxamido)hexanamido)-3,3-dimethylbutanoyl)-4-hydroxy-N-(4-(4-methylthiazol-5-yl)benzyl)pyrrolidine-2-carboxamide] | B (“B” indicates maximum degradation ≥ 50%)
< 50% | Cc1ncsc1-c1ccc(CNC(=O)[C@@H]2C[C@@H](O)CN2C(=O)[C@@H](NC(=O)CCCCCCCNC(=O)C23CC(COc4cc(-c5ccccc5O)nnc4N)(C2)C3)C(C)(C)C)cc1 [Compound 71, (2S,4R)-1-((S)-2-(8-(3-(((3-amino-6-(2-hydroxyphenyl)pyridazin-4-yl)oxy)methyl)bicyclo[1.1.1]pentane-1-carboxamido)octanamido)-3,3-dimethylbutanoyl)-4-hydroxy-N-(4-(4-methylthiazol-5-yl)benzyl)pyrrolidine-2-carboxamide] | B (“B” indicates maximum degradation ≥ 50%)
< 50% | Cc1ncsc1-c1ccc(CNC(=O)[C@@H]2C[C@@H](O)CN2C(=O)[C@@H](NC(=O)CCCCCCCCCNC(=O)C23CC(COc4cc(-c5ccccc5O)nnc4N)(C2)C3)C(C)(C)C)cc1 [Compound 72, (2S,4R)-1-((S)-2-(10-(3-(((3-amino-6-(2-hydroxyphenyl)pyridazin-4-yl)oxy)methyl)bicyclo[1.1.1]pentane-1-carboxamido)decanamido)-3,3-dimethylbutanoyl)-4-hydroxy-N-(4-(4-methylthiazol-5-yl)benzyl)pyrrolidine-2-carboxamide] | B (“B” indicates maximum degradation ≥ 50%)
